Data from patent US11446282B2, “Methods of treating mixed dyslipidemia and hypertriglycertdemia” (Kowa Company, Ltd., priority 2017, dated 2022).

How the values were obtained:
[1] = Urinary excretion in nonclinical and clinical studies; format: in vivo
[2] = biological target: T1, PPARα (Homo sapiens, UniProt Q07869); assay: PPARα-activating effect (EC50); format: biochemical
T1 sequence (Q07869 1-468): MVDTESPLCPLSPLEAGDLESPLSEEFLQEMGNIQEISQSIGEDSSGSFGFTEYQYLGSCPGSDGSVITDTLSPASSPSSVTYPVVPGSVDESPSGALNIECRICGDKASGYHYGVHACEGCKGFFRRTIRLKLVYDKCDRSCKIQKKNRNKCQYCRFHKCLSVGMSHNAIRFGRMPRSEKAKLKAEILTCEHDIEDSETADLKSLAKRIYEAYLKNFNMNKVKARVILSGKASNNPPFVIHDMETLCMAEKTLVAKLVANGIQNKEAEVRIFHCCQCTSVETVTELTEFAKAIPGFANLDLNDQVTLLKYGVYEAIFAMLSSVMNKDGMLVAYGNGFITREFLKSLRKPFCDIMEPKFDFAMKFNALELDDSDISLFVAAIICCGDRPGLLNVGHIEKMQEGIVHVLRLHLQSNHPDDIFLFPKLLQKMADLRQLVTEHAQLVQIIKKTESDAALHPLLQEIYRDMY

[3] = tested on: dyslipidemic patients with statin; assay: Example 4 pooled analysis: lipoprotein subclasses by HPLC, with statin, by eGFR; format: in vivo, human; conditions: for Small HDL-C % Change from baseline to week 12 / Small LDL-C % Change from baseline to week 12 / Very small HDL-C % Change from baseline to week 12 / Very small LDL-C % Change from baseline to week 12: LS mean
Description: The present study analyzed data combined from 6 randomized double-blind placebo-controlled studies that were conducted in Japan and continued for 12 weeks unless otherwise noted: a phase 2 study in 224 patients with a history of documented dyslipidemia and plasma TG of 200 mg/dL (2.26 mmol/L) or higher, randomized to placebo, pemafibrate 0.05, 0.1, 0.2, 0.4 mg/day, or fenofibrate 100 mg/day; a phase 3 study in 526 patients with dyslipidemia, high TG levels, and low HDL-C levels, randomized to placebo, pemafibrate 0.1, 0.2, or 0.4 mg/day, or fenofibrate 100 or 200 mg/day; a study in 188 patients with dyslipidemia, randomized to pitavastatin in combination with pemafibrate 0.1, 0.2, or 0.4 mg/day; a 24-week study in 423 patients with dyslipidemia, randomized to pemafibrate 0.2 mg/day (fixed dose) or 0.2 [0.4] mg/day (conditional up-titration) with any statin; a 24-week phase 3 study in 166 patients with type 2 diabetes and hypertriglyceridemia, randomized to placebo or pemafibrate 0.2 or 0.4 mg/day; and a study in 27 patients with hypertriglyceridemia and insulin resistance, randomized to pemafibrate 0.4 mg/day or placebo. All studies were approved by the Institutional Review Board for each study institution and were conducted in accordance with the Declaration of Helsinki and under the guidelines of Good Clinical Practice.
In this study, we evaluated the efficacy and safety of pemafibrate at doses of 0.1 mg/day, 0.2 mg/day, and 0.4 mg/day, with and without statin. The primary efficacy endpoint was percent change in TG from baseline to 12 weeks. The secondary efficacy endpoints were also assessed from baseline to 12 weeks: percent change in HDL-C, LDL-C, non-HDL-C, TC, RemL-C, Apo AI, Apo AII, Apo B, Apo B48, Apo CII, Apo CIII, Apo CIII/Apo CII, and Apo E; percent change in HPLC findings for CM-C, VLDL-C, cholesterol content in 4 subclasses of LDL (large, medium, small, and very small LDLs), and cholesterol content for 5 subclasses of HDL (very large, large, medium, small, and very small HDLs); and changes in fibrinogen and FGF21. The primary safety endpoints were the incidence of adverse events and adverse drug reactions. Secondary safety endpoints were percentage of values above the upper limit of normal range for AST, ALT, sCr and CK, and change in sCr eGFR, CK, AST, ALT, gamma-glutamyl transferase (γ-GT), alkaline phosphatase (ALP), and total bilirubin.
Patients with renal dysfunction were defined as those with baseline eGFR<60 mL/min/1.73 m^2. Analysis was stratified by the presence or absence of renal dysfunction in the concomitant statin group, and efficacy and safety of pemafibrate were evaluated. In efficacy and safety evaluations excluding AEs, ADRs, and cutoff values for AST, ALT, sCr, and CK, findings were combined for pemafibrate subgroups receiving doses of 0.1 mg/day, 0.2 mg/day, and 0.4 mg/day.
For each lipid parameter, gel filtration HPLC was performed at Skylight Biotech, Inc. Other measurements were performed at LSI Medience Corporation. The FAS was used for analyzing efficacy parameters of effects on lipids, fibrinogen, and FGF21. The safety analysis set was used for safety parameters and included all patients who received at least one dose of the study drug. For lipid parameters, fibrinogen, and FGF21, LS means (95% confidence interval) were calculated at Week 12 (LOCF) using analysis of covariance (ANCOVA) with baseline values as the co-variable within each category. For safety parameters, LS means (95% confidence interval) were calculated at Week 12 using ANCOVA with baseline values as the co-variable within each category. SAS version 9.2 was used for analyses.

[4] = tested on: major drug metabolizing enzymes in the liver; assay: Inhibition of major drug metabolizing enzymes in the liver; format: in vitro ADME
[5] = Baseline eGFR < 60 mL/min/1.73 m^2, 0.1-0.4 mg/day
[6] = Baseline eGFR ≥ 60 mL/min/1.73 m^2, 0.1-0.4 mg/day

**Q.** Which results are given for `CC[C@@H](Oc1cccc(CN(CCCOc2ccc(OC)cc2)c2nc3ccccc3o2)c1)C(=O)O` [Pemafibrate, (2R)-2-[3-({1,3-benzoxazol-2-yl[3-(4-methoxyphenoxy)propyl]amino}methyl)phenoxy]butanoic acid]?
**A.** urinary excretion [1]: low; specificity for the PPARα receptor ([2]; versus fenofibrate): more specific; times more active than fenofibric acid in terms of the EC50 of the PPARα-activating effect ([2]; versus fenofibric acid): approximately 2500 times; Small HDL-C Week 12 (LOCF) [3, 5]: 0.484 mmol/L; Small LDL-C Week 12 (LOCF) [3, 5]: 0.577 mmol/L; Very small HDL-C Week 12 (LOCF) [3, 5]: 0.208 mmol/L; Very small LDL-C Week 12 (LOCF) [3, 5]: 0.229 mmol/L; Small HDL-C % Change from baseline to week 12 [3, 5]: 34.9%; Small LDL-C % Change from baseline to week 12 [3, 5]: −7.8%; Very small HDL-C % Change from baseline to week 12 [3, 5]: 25.2%; Very small LDL-C % Change from baseline to week 12 [3, 5]: −14.6%; Small HDL-C Week 12 (LOCF) [3, 6]: 0.470 mmol/L; Small LDL-C Week 12 (LOCF) [3, 6]: 0.576 mmol/L; Very small HDL-C Week 12 (LOCF) [3, 6]: 0.204 mmol/L; Very small LDL-C Week 12 (LOCF) [3, 6]: 0.231 mmol/L; Small HDL-C % Change from baseline to week 12 [3, 6]: 26.7%; Small LDL-C % Change from baseline to week 12 [3, 6]: −6.0%; Very small HDL-C % Change from baseline to week 12 [3, 6]: 19.4%; Very small LDL-C % Change from baseline to week 12 [3, 6]: −12.5%; small and very small LDL-C and HDL particle sizes (observation) ([3]; lower eGFR group): improvements; inhibitory effects on major drug metabolizing enzymes in the liver [4]: minimal
